Results: patent publication US9868736B2, “Deubiquitinase inhibitors and methods for use of the same” (THE REGENTS OF THE UNIVERSITY OF MICHIGAN, priority 2013, dated 2018)

System: MM1.S tumor
Experiment: MM1.S tumor growth in NSG mice
Type: in vivo, NOD/SCID/gamma-2 knockout mice (NSG)
Protocol: Ten million MM1.S tumor cells were injected into the dorsal region of twenty female NOD/SCID/gamma-2 knockout mice (NSG) weighing ˜20 grams each. After 3 weeks tumors became visible and measurable with calipers. Mice were separated into four groups of 5 mice each and IP injected with G9 dissolved in 55% dimethyl sulfoxide, 25% polyethylene glycol 300, 20% phosphate-buffered saline at dose levels of 0, 2.5, 5 and 10 mg/kg mouse body weight. Animals were injected once per day for 14 days and tumor growth (measured with calipers) and animal weight were monitored over the treatment interval. The resulting changes in tumor growth for each group are shown and represented as the average+/−standard error of the mean for each group. The p-values were calculated using GraphPad InStat. P-values lower than 0.05 are considered significant. […] Animal weight was not affected by G9 injection in any of the mice. […] Twenty female NSG mice were inoculated subcutaneously with 10 million MM1.S cells in Matrigel and cell culture media (1:1) in a total volume of 0.1 mL. When tumors were measurable with calibers (3 weeks post tumor cell injection), mice were divided into 4 groups of five mice each and treated with the dose of G9 indicated. Tumor growth (left) and animal weight (right) were recorded at the interval noted. The results represent the average+/−SD of 5 animals per data point. P-values <0.05 are considered significant and were calculated using GraphPad InStat.
A second animal study was conducted in NSG mice with mice receiving higher dose levels of G9. Tumor inoculation and compound administration were similar to those utilized in the lower dose study. However, 3 mice per treatment group were used in this study and additional G9 doses were tested for safety and efficacy. […] NSG mice were inoculated with MM1.S tumors as described in FIG. 7. When tumors were measurable with calipers, mice were placed into 5 groups of 3 mice each and treated with G9 at 0, 5, 10, 15 and 20 mg/kg for 12 days with daily injection. Tumor size (left) and animal weight (right) were recorded over the treatment interval. […] The result of G9 treatment is also depicted as tumor volume over time for each treatment group (FIG. 4—top). Tumors extracted from each of the three mice in each treatment group following the last injection were photographed and shown in FIG. 4 (bottom). […] Control and treated mouse tumor sizes are shown on the left. Bars from left to right in each treatment group represent tumor size after 0, 4, 6, 8 and 11 days of treatment. Each bar represents the average+/−S.D. of measurements made in 3 mice per group. The significance of change in tumor volume between treated and control mice was calculated using GraphPad InStat. P-values<0.05 are considered significant. On the bottom, tumors were extracted from control and treated mice and photographed. Each row illustrates tumor from each of the three mice in the treatment group noted on the top of each row.

Structure (SMILES): CCCC(NC(=O)/C(C#N)=C/c1nc(Cl)ccc1Cl)c1ccc(OCCN2CCOCC2)cc1 (stereo not drawn) [Compound G9, (E)-2-Cyano-3-(3,6-dichloropyridin-2-yl)-N-(1-(4-(2-morpholinoethoxy)phenyl)butyl)acrylamide]
- animal weight (IP once per day for 14 days, 2.5, 5 and 10 mg/kg): not affected
- MM1.S tumor growth (IP once per day for 14 days, 2.5, 5 and 10 mg/kg (all doses)): reduced MM1.S tumor growth
- MM1.S tumor growth compared to controls (IP once per day for 14 days, 5 and 10 mg/kg): significant reduction in MM1.S tumor growth
- MM1.S tumor growth (daily injection for 12 days, 5, 10, 15 and 20 mg/kg (all doses)): suppressed MM1.S tumor growth
- animal weight (daily injection for 12 days, 10-20 mg/kg): some weight loss
- MM1.S tumor size (daily injection for 12 days, 15 and 20 mg/kg): tumor regression
